The values that follow come from patent US20250241901A1, “ACTIVATION OF MNRR1 / CHCHD2 AS A THERAPEUTIC TARGET FOR MITOCHONDRIA ASSOCIATED DISORDERS” (Wayne State University, priority 2024, published 2025).

What all share (format): cell-based, human
Assay [1] has as its system MNRR1-promoter driven luciferase reporter. Nature of the assay: High throughput screen with MNRR1-promoter driven luciferase reporter cell lines. To be noted: list of 2400 FDA-approved drugs, small molecules and natural products. As for the experimental part: Cell lines, culture, and Z′ determination: Stable cell line generation: HEK293 or MDA-MB-468 cells were transfected with pGL4-MNNR1-luciferase, selected with 0.5 μg/mL (for 293) or 1 μg/mL (for 468) puromycin for 2 weeks, and subcloned by limiting dilution. MDA-MB-468-MNRR1-luc and HEK293-MNRR1-luc cells from multiple clones (5000-7500 cells) were plated in 100 μL of complete medium overnight and treated with 10 μM of each compound from the library for 24 h. The medium was aspirated from each well to a volume of 25 μL, and 25 μL Bright Glo (Promega, Madison, WI) luciferase detection reagent was added to each well 10 min prior to luminescent determination with a FlexStation 3 Multimode Microplate Reader (Molecular Devices, San Jose, CA). […] The Z′ factor is a value used to identify strong candidates and can be calculated using a previously described method. […]
MicroSource Spectrum Collection: Despite the low Z′ values for MDA-MB-468-MNRR1-luc and HEK293-MNRR1-luc, pilot screens were performed with both using the MicroSource Spectrum Collection (Gaylordsville, CT). […] For HTS, cells were plated, treated, and measured for luciferase expression as described for clone identification; all HTS compounds were added to a final concentration of 10 μM and MNRR1-luciferase expression was measured after 24 h. […]
A general note: Reporter assays use an easily measured gene product as a stand-in for the process of interest.

Another assay has as its system MNRR1. Briefly: MNRR1 immunofluorescence in MDAMB468 cells. The note with it: MDAMB468, 10 μM, 24 h. As for the experimental part: FIGS. 4A-4B: High throughput screen to identify MNRR1 activators. FIG. 4A: Campaign view representing compounds that activate MNRR1. Control levels are represented as a dotted line. Each compounds is shown as a small dot and nitazoxanide is highlighted as a large dot. FIG. 4B: MDAMB468 cells treated with Vehicle (DMSO) or nitazoxanide (10 μM) for 24 h were immunostained (MNRR1=orange, DAPI=blue) and imaged at 63λ using a confocal microscope. The scale bar represents 200 μm.
Immunofluorescence: Cells plated on glass cover slips were fixed with 3.7% formaldehyde (prepared in 1× PBS) at room temperature for 15 min, followed by permeabilization with 0.15% Triton X-100 (prepared in distilled water) for 2 min, and then blocked with 5% bovine serum albumin (BSA) (prepared in 1× PBS, 0.1% TWEEN-20 (PBST)) for 1 h at room temperature. Cells were washed with PBST then incubated for 1 h at room temperature in primary antibody solution containing Coralite® 594 conjugated mouse monoclonal anti-CHCHD2 IgG (1:100, Proteintech, Cat. No. CL594-66302) prepared in PBST. Cells were washed 3 times with PBST for 5 min each and mounted with Vectashield vibrance with DAPI (Cat. #H-1800-10, Vector Labs, Newark, CA). […] Corrected total fluorescence for each field to determine MNRR1 content was calculated using FIJI (National Institutes of Health).

Assay [2] concerns MELAS patient fibroblasts. Nature of the assay: LPS-induced ROS and TNF levels in MELAS patient fibroblasts. To be noted: 10 μM + 500 ng/mL LPS, 24 h. On the procedure:
FIGS. 8A-8D: MNRR1 activation using tizoxanide enhances mitochondrial function, mitophagy, and protects from LPS-induced inflammation in MELAS patient fibroblasts. FIG. 8A: Equal amounts of lysates from MELAS patient fibroblast (MF 1, 2, or 3) lysates treated with vehicle (DMSO) or tizoxanide (10 μM) for 48 h were separated on an SDS-PAGE gel and probed for LC3B, PGC1a, MNRR1, MTCO2, TOM20, and phospho-ubiquitin (S65) levels. GAPDH orTubulin was probed as a loading control. FIG. 8B: Oxygen consumption measured from MELAS patient fibroblasts treated with vehicle (DMSO) or tizoxanide (10 μM) for 48 h (n=4 biological replicates, mean±SE). FIG. 8C: Mitochondrial ATP rate measured in MELAS patient fibroblasts treated with vehicle (DMSO) or tizoxanide (10 μM) for 48 h (n=4 biological replicates, mean±SE). FIG. 8D: Heatmap representation of ROS and TNFα transcript levels from MELAS patient fibroblasts treated with vehicle (DMSO), LPS (DMSO+500 ng/mL LPS), or LPS plus tizoxanide (10 μM tizoxanide+500 ng/mL LPS) for 24 h (n=4 biological replicates). In all figures, * indicates p<0.05, ** indicates p<0.005.
ROS measurements: Total cellular ROS measurements were performed with CM-H2DCFDA (Life Technologies). […] Cells were washed twice in phosphate buffered saline and analyzed for fluorescence on a BioTek Synergy H1 Microplate Reader (Agilent).

Turning to `CC(=O)Oc1ccccc1C(=O)Nc1ncc([N+](=O)[O-])s1` [nitazoxanide, Nitazoxanide], the “outcome of screen for MNRR1 activators” value in assay [1] is on record as “identified as an MNRR1 activator”. In addition, the MNRR1 level result in the assay with MNRR1 is “increase of MNRR1”.
Take `O=C(Nc1ncc([N+](=O)[O-])s1)c1ccccc1O` [tizoxanide, Tizoxanide]: the “LPS-induced pro-inflammatory response (ROS and TNF levels)” value in assay [2] is “blocked”.
